Patent US8114410B2, “Composition and methods for the inhibition of membrane fusion by paramyxoviruses” (priority 2001, dated 2012)

Tests used:
live NiV = conditions: 56 μM
[1] = test system: HeV-mediated fusion (HeLa cells expressing HeV F and G, U373 target cells)
[2] = test system: NiV-mediated fusion (HeLa cells expressing NiV F and G, U373 target cells)

Molecule	% Inhibition of focus formation (live NiV)	Inhibition of HeV-mediated fusion (in words) [1]	Inhibition of NiV-mediated fusion (in words) [2]	IC50 [1]	IC50 [2]
CC[C@H](C)[C@H](NC(=O)[C@H](CCCCN)NC(=O)[C@H](CCC(N)=O)NC(=O)[C@H](C)NC(=O)[C@H](CCC(=O)O)NC(=O)[C@H](CCCCN)NC(=O)[C@@H](NC(=O)[C@H](Cc1ccc(O)cc1)NC(=O)[C@H](CC(=O)O)NC(=O)[C@H](CCCCN)NC(=O)[C@H](CO)NC(=O)[C@H](CCC(N)=O)NC(=O)[C@H](CCC(N)=O)NC(=O)[C@H](CC(C)C)NC(=O)[C@H](CO)NC(=O)[C@H](CCC(N)=O)NC(=O)[C@H](CC(N)=O)NC(=O)[C@H](CCSC)NC(=O)[C@H](CO)NC(=O)[C@H](CO)NC(=O)[C@@H](NC(=O)[C@H](CCC(N)=O)NC(=O)[C@H](CO)NC(=O)[C@H](CO)NC(=O)[C@@H](NC(=O)[C@H](CC(=O)O)NC(=O)[C@@H](NC(=O)[C@H](CCCCN)NC(=O)[C@H](CC(=O)O)NC(=O)[C@@H](NC(=O)[C@H](Cc1ccc(O)cc1)NC(=O)[C@@H](NC(=O)[C@@H]1CCCN1C(=O)[C@@H]1CCCN1)C(C)C)[C@@H](C)O)C(C)C)[C@@H](C)CC)[C@@H](C)CC)[C@@H](C)CC)C(=O)N[C@@H](CC(C)C)C(=O)N[C@@H](CC(=O)O)C(=O)N[C@H](C(=O)N[C@H](C(=O)N[C@@H](CC(N)=O)C(=O)N1CCC[C@H]1C(=O)N[C@@H](CO)C(=O)N[C@@H](CC(C)C)C(=O)O)C(C)C)[C@@H](C)O [FC1]	91.8%	completely inhibit HeV-mediated fusion in the nM range	capable of inhibiting recombinant NiV-mediated fusion at slightly lower efficiencies		
KPYTQSDVSMISLQSQKSINSLPSQIKDYVQKTVILAEDNP [ScHeV FC2, reference compound]		no inhibitory effect	no inhibitory effect		
CC[C@H](C)[C@H](NC(=O)[C@H](CCCCN)NC(=O)[C@H](CCC(N)=O)NC(=O)[C@H](C)NC(=O)[C@H](CCC(=O)O)NC(=O)[C@H](CCCCN)NC(=O)[C@@H](NC(=O)[C@H](Cc1ccc(O)cc1)NC(=O)[C@H](CC(=O)O)NC(=O)[C@H](CCCCN)NC(=O)[C@H](CO)NC(=O)[C@H](CCC(N)=O)NC(=O)[C@H](CCC(N)=O)NC(=O)[C@H](CC(C)C)NC(=O)[C@H](CO)NC(=O)[C@H](CCC(N)=O)NC(=O)[C@H](CC(N)=O)NC(=O)[C@H](CCSC)NC(=O)[C@H](CO)NC(=O)[C@H](CO)NC(=O)[C@@H](NC(=O)[C@H](CCC(N)=O)NC(=O)[C@H](CO)NC(=O)[C@H](CO)NC(=O)[C@@H](NC(=O)[C@H](CC(=O)O)NC(=O)[C@@H](NC(=O)[C@H](CCCCN)NC(=O)[C@H](CC(=O)O)NC(=O)[C@@H](NC(=O)[C@H](Cc1ccc(O)cc1)NC(=O)[C@@H](NC(=O)[C@@H]1CCCN1C(=O)[C@@H]1CCCN1)C(C)C)[C@@H](C)O)C(C)C)[C@@H](C)CC)[C@@H](C)CC)[C@@H](C)CC)C(=O)N[C@@H](CC(C)C)C(=O)N[C@@H](CC(=O)O)C(=O)N[C@H](C(=O)N[C@H](C(=O)N[C@@H](CC(N)=O)C(=O)N1CCC[C@H]1C(=O)N[C@@H](CO)C(=O)N[C@@H](CC(C)C)C(=O)O)C(C)C)[C@@H](C)O [HeV FC2]		completely inhibitory in the nM range	completely inhibitory in the nM range	5.2 to 5.8 nM	5.2 to 5.8 nM
